Test results reported in ChEMBL document CHEMBL1944527, “Structure-based library design and the discovery of a potent and selective mast cell β-tryptase inhibitor as an oral therapeutic agent” (Bioorg Med Chem Lett, 2012).
Values belong to the compound of their own block, whether it stands above or below them.

Tests used:
[1] = Inhibition of human recombinant beta tryptase using S-2366 as substrate after 30 mins by spectrophotometry
[2] = Volume of distribution at steady state in rat at 2 mg/kg, iv and 10 mg/kg, po; details: in vivo, read-out: Vdss
[3] = target: T1, Chymase (Homo sapiens, UniProt P23946); assay: Inhibition of chymase
T1 sequence (P23946 whole entry): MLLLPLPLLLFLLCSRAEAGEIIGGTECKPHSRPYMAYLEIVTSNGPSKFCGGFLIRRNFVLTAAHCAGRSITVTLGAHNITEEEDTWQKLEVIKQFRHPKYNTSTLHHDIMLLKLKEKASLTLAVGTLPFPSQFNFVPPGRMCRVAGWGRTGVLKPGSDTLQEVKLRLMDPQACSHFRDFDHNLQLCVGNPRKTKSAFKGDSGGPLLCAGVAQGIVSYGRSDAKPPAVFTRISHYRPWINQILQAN

[4] = Cmax in rat at 10 mg/kg, po; format: ADME, organism-based; parameters: dose 10 mg/kg, route oral; details: in vivo
[5] = target: Prothrombin (Homo sapiens, UniProt P00734); assay: Inhibition of thrombin
[6] = target: Coagulation factor X (Homo sapiens, UniProt P00742); assay: Inhibition of Coagulation factor 10a
Chain of Coagulation factor X (P00742 41-179 limits assumed): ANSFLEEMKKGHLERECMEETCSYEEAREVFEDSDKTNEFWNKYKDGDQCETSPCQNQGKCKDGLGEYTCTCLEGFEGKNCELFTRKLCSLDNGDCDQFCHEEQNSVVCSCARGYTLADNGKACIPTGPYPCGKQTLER
Chain of Coagulation factor X (P00742 235-488 limits assumed): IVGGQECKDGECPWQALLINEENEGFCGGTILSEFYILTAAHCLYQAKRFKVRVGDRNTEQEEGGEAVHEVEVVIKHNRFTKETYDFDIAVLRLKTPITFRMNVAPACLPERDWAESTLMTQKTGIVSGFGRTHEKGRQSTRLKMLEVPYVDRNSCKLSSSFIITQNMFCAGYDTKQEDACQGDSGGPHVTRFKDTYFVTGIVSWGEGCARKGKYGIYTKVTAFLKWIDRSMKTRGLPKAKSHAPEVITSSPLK

[7] = Oral bioavailability in rat at 10 mg/kg; format: ADME, organism-based; details: in vivo
[8] = Inhibition of trypsin
[9] = Tmax in rat at 10 mg/kg, po; format: ADME, organism-based; parameters: dose 10 mg/kg, route oral; details: in vivo
[10] = Half life in rat plasma at 2 mg/kg, iv
[11] = Plasma clearance in rat at 2 mg/kg, iv and 10 mg/kg, po
[12] = Inhibition of elastase

- Ki [1]: 0.166 µM
SMILES: NCc1cccc(C2CCN(C(=O)c3ccc(C#Cc4ccc(Cl)cc4)o3)CC2)c1

- Vd [2]: 14.1 L/kg
- IC50 [3]: > 100 µM
- Cmax [4]: 68 ng/mL
- IC50 [5]: > 100 µM
- Ki [1]: 0.031 µM
- IC50 [6]: > 100 µM
- bioavailability [7]: 32%
- IC50 [8]: > 100 µM
- Tmax [9]: 3.3 h
- half-life [10]: 2.5 h
- clearance [11]: 85 mL/min/kg
- IC50 [12]: > 100 µM
SMILES: NCc1cccc(C2CCN(C(=O)c3ccc(C#Cc4ccccc4)o3)CC2)c1.O=C(O)C(F)(F)F

- Vd [2]: 18.5 L/kg
- IC50 [3]: > 100 µM
- Cmax [4]: 121 ng/mL
- IC50 [5]: > 100 µM
- IC50 [6]: > 100 µM
- bioavailability [7]: 77%
- IC50 [8]: > 100 µM
- Tmax [9]: 3.7 h
- half-life [10]: 2.2 h
- clearance [11]: 140 mL/min/kg
- IC50 [12]: > 100 µM
SMILES: NCc1cccc(C2CCN(C(=O)c3ccc(C#Cc4ccccc4F)o3)CC2)c1.O=C(O)C(F)(F)F

- Ki [1]: 0.112 µM
SMILES: Cc1ccc(C#Cc2ccc(C(=O)N3CCC(c4cccc(CN)c4)CC3)o2)cc1

- Ki [1]: 0.324 µM
SMILES: Cc1ccccc1C#Cc1ccc(C(=O)N2CCC(c3cccc(CN)c3)CC2)o1

- Ki [1]: 0.742 µM
SMILES: NCc1cccc(C2CCN(C(=O)c3ccc(C#Cc4ccc(F)c(F)c4)o3)CC2)c1

- Ki [1]: 0.067 µM
SMILES: NCc1cccc(C2CCN(C(=O)c3ccc(C#Cc4ccc(F)cc4F)o3)CC2)c1

- Ki [1]: 0.279 µM
SMILES: NCc1cccc(C2CCN(C(=O)c3ccc(C#Cc4ccc(F)cc4)o3)CC2)c1

- Ki [1]: 0.098 µM
SMILES: NCc1cccc(C2CCN(C(=O)c3ccc(C#Cc4cccc(F)c4)o3)CC2)c1

- Ki [1]: 0.022 µM
SMILES: NCc1cccc(C2CCN(C(=O)c3ccc(C#Cc4ccccc4Cl)o3)CC2)c1

- Ki [1]: 0.101 µM
SMILES: NCc1cccc(C2CCN(C(=O)c3ccc(C#Cc4ccc(Cl)nc4)o3)CC2)c1

- Ki [1]: 0.236 µM
SMILES: NCc1cccc(C2CCN(C(=O)c3ccc(C#Cc4cccs4)o3)CC2)c1

- Ki [1]: 0.327 µM
SMILES: NCc1cccc(C2CCN(C(=O)c3ccc(C#Cc4ccsc4)o3)CC2)c1

- Ki [1]: 0.084 µM
SMILES: NCc1cccc(C2CCN(C(=O)c3ccc(C#Cc4cccnc4)o3)CC2)c1

- IC50 [3]: > 100 µM
- IC50 [5]: > 100 µM
- Ki [1]: 0.005 µM
- IC50 [6]: 9 µM
- bioavailability [7]: 0%
- IC50 [8]: > 100 µM
- half-life [10]: 0.46 h
- clearance [11]: 310 mL/min/kg
- IC50 [12]: > 100 µM
SMILES: NCc1cccc(C2CCN(C(=O)c3ccc(C#Cc4ccccn4)o3)CC2)c1.O=C(O)C(F)(F)F

- Ki [1]: 0.027 µM
SMILES: NCc1cccc(C2CCN(C(=O)c3ccc(C#Cc4ncccc4F)o3)CC2)c1

- Ki [1]: 2.77 µM
SMILES: NCc1cccc(C2CCN(C(=O)c3ccc(C#Cc4cnccn4)o3)CC2)c1

- Ki [1]: 0.157 µM
SMILES: NCc1cccc(C2CCN(C(=O)c3ccc(C#Cc4ncccn4)o3)CC2)c1
